Data from patent publication US20240238361A1, “METHODS OF TREATING FIBROSIS AND HYPOXIA-ASSOCIATED DAMAGE TO PERIPHERAL NERVES” (Temple Therapeutics BV, priority 2021, published 2024).
Entries after “also recorded” stand apart in the source; their conditions may differ. Where a SMILES comes first, the peptide text is derived from it.

Tests used:
[1] = tested on: hypoxic primary rat fibroblasts; test: Alamar Blue viability / proliferation assay under hypoxia; assay type: cell-based; conditions: for cell proliferation vs untreated controls: various concentrations
Experimental: In order to mimic the hypoxic micro-environment, primary rat fibroblasts were exposed to hypoxia. Cells were exposed to 2 separate conditions—continuous and episodic hypoxia. For continuous hypoxia, cells were incubated in a hypoxic chamber (2% 02) for 48 h and treated with or without L-alanyl-L-glutamine and no restoration to normoxia as shown in FIG. 1C. Cells were collected and processed for experiments subsequently. For episodic hypoxia, cells were incubated in a hypoxic chamber (2% 02) for 2 h followed by restoration to normoxia for 48 h at which time cells were treated with or without L-alanyl-L-glutamine, as shown by FIG. 1C. Cells were collected after 48 h and processed for experiments subsequently. Proliferation of primary fibroblasts were determined by alamar blue assay (Invitrogen). Briefly, cells were plated in a 96-well plate treated with or without L-alanyl-L-glutamine under aforementioned hypoxic conditions for 48 h. The interaction of alamar blue with the cells was analyzed for 4 h by measuring fluorescence readings at 540 nm and 585 nm respectively. Proliferation was also detected using flow cytometry based EdU assay using EdU-Click 488 (baseclick).

[2] = tested on: hypoxic primary rat fibroblasts; test: Western blotting of whole cell lysates for HIF1-α signaling and pro-fibrotic proteins; assay type: cell-based
Experimental: In order to mimic the hypoxic micro-environment, primary rat fibroblasts were exposed to hypoxia. Cells were exposed to 2 separate conditions—continuous and episodic hypoxia. For continuous hypoxia, cells were incubated in a hypoxic chamber (2% 02) for 48 h and treated with or without L-alanyl-L-glutamine and no restoration to normoxia as shown in FIG. 1C. Cells were collected and processed for experiments subsequently. For episodic hypoxia, cells were incubated in a hypoxic chamber (2% 02) for 2 h followed by restoration to normoxia for 48 h at which time cells were treated with or without L-alanyl-L-glutamine, as shown by FIG. 1C. Cells were collected after 48 h and processed for experiments subsequently. Protein samples were prepared by resuspending cells growing in 6-well plates in RIPA lysis and extraction buffer (Thermo) containing protease and phosphatase inhibitors (Roche). Protein concentrations were quantified using protein assay dye reagent (Bio-Rad). Samples were mixed with 4× LDS Sample buffer (Thermo) and denatured by boiling at 95° C. for 6 minutes. Following protein concentration estimations, equal protein samples containing 25 μg total protein were loaded and resolved in 4-15% Mini protean TGX gels (Bio-Rad). Fractionated proteins were transferred to 0.2 μm nitrocellulose membranes using Trans-Blot® Turbo™ Transfer System (Bio-Rad). Membranes were blocked with 5% Non-Fat dry milk and incubated overnight with primary antibodies. The following primary antibodies along with their respective concentrations were used during overnight incubation. Anti-collagen I (1:500; ab34710) and anti-collagen IV (1:500; ab6586) were purchased from Abcam. Anti-heat shock protein 47 (HSP-47) (1:400; sc-13150) and anti-fibronectin (1:500; sc-8422) were ordered from Santa Cruz Biotechnology. Other antibodies including anti-SMAD 2/3 (1:500; 85865S), anti-GAPDH (1:5000; 97166S) and anti-HIF-1α (1:750; 14179S) were from Cell Signaling Technology. Horseradish peroxidase-conjugated secondary antibodies at a concentration of 1:5000 were used for immunoreactivity and detection of protein bands were does using Pierce™ ECL Plus Western Blotting Substrate (Thermo) and on the ChemiDoc Imaging Systems (Bio-Rad).

[3] = tested on: hypoxic primary rat fibroblasts; test: Immunofluorescence of HIF1-α signaling and pro-fibrotic proteins; assay type: cell-based
Experimental: (§1) In order to mimic the hypoxic micro-environment, primary rat fibroblasts were exposed to hypoxia. Cells were exposed to 2 separate conditions—continuous and episodic hypoxia. For continuous hypoxia, cells were incubated in a hypoxic chamber (2% 02) for 48 h and treated with or without L-alanyl-L-glutamine and no restoration to normoxia as shown in FIG. 1C. Cells were collected and processed for experiments subsequently.
For episodic hypoxia, cells were incubated in a hypoxic chamber (2% 02) for 2 h followed by restoration to normoxia for 48 h at which time cells were treated with or without L-alanyl-L-glutamine, as shown by FIG. 1C. Cells were collected after 48 h and processed for experiments subsequently.
For immunofluorescence microscopy, cells were grown on 4-well chamber slides (IBIDI) under appropriate hypoxic conditions with or without L-alanyl-L-glutamine treatment. Cells were washed with ice-cold PBS followed by fixation with 4% paraformaldehyde. Fixed cells were permeabilized with 0.5% Triton X-100 and incubated with blocking reagent (1% BSA in PBS) for 30 minutes, prior to overnight incubation with appropriate primary antibodies. After wash steps, cultures were labeled and incubated with secondary antibodies and 4′-6-didiamino-2-phenylindole, dihydrochloride (DAPI, Sigma) were used to stain the nuclei.
Fluorescence microscopy image analysis was performed using NIKON Ti2 inverted microscope equipped with Photometrics Prime 95B camera for fluorescence imaging. All images were digitally processed, all quantifications and further arrangement for presentation was done using NIS-Elements Advanced Research analysis software. For quantification analysis, pictures from random fields in independent wells were taken at 10× and 40× magnification objectives and the total protein expression for each marker was determined in reference to the total number of cells based on DAPI quantification.
For immunofluorescence, the primary antibodies along with their respective concentrations are listed below. Anti-collagen I (1:500; ab34710), anti-collagen IV (1:500; ab6586) and anti-α-SMA (1:500; ab124964) were purchased from Abcam. Anti-HSP-47 (1:250; sc-13150), anti-fibronectin (1:250; sc-8422), and anti-HIF-1α (1:500; sc-13515) were ordered from Santa Cruz Biotechnology. Anti-SMAD 2/3 (1:500; 85865S) was purchased from Cell Signaling Technology. In addition to this, the following secondary antibodies: Goat anti-mouse Alexa Fluor (AF) 488 (A11029), goat anti-mouse AF546 (A11030), goat anti-rabbit AF488 (A11034) and goat anti-rabbit AF546 (A11010) from Life Technologies. DAPI (D9564) from Sigma was used at a concentration of 1:1000.

[4] = tested on: hypoxic primary rat fibroblasts; test: Phosphoproteomics (LC-MS/MS) and pathway analysis under chronic hypoxia; assay type: cell-based; conditions: vs untreated chronic hypoxic samples
Experimental: as §1
Following fibroblast isolation from sciatic nerves of rats, (8E10 primary fibroblasts) were lysed in 80 ul of 8M Urea, 0.1M ammonium bicarbonate, phosphatase inhibitors (Sigma P5726&P0044) by sonication (Bioruptor, 10 cycles, 30 seconds on/off, Diagenode, Belgium) and proteins were digested as described previously (PMID:27345528). Shortly, proteins were reduced with 5 mM TCEP for 60 min at 37° C. and alkylated with 10 mM chloroacetamide for 30 min at 37° C. After diluting samples with 100 mM ammonium bicarbonate buffer to a final urea concentration of 1.6M, proteins were digested by incubation with sequencing-grade modified trypsin (1/50, w/w; Promega, Madison, Wisconsin) for 12 h at 37° C. After acidification using 5% TFA, peptides were desalted using C18 reverse-phase spin columns (Macrospin, Harvard Apparatus) according to the manufacturer's instructions, dried under vacuum and stored at −20° C. until further use. […]

[5] = room temperature; cited from earlier work
[6] = continuous hypoxia 48 h, 1 mM, 10 mM and 100 mM, dose-dependent
[7] = continuous hypoxia 48 h, various concentrations
[8] = episodic hypoxia 2 h, then treatment 48 h

C[C@H](N)C(=O)N[C@@H](CCC(N)=O)C(=O)O [L-alanyl-L-glutamine] (H-Ala-Gln-OH)
viability and cell proliferation ([1]; Alamar Blue, 48 h, hypoxic, 1 mM, 10 mM and 100 mM): does not affect the viability and cell proliferation
cell proliferation vs untreated controls ([1]; continuous (48 h) hypoxia): no change in cell proliferation
cell proliferation vs untreated controls ([1]; episodic (2 h) hypoxia): no change in cell proliferation
HSP47 expression (western blot) ([2]; continuous hypoxia 48 h): reduces expression of HSP47 but we did not observe a significant downregulation
HIF1-α expression (western blot) ([2]; continuous hypoxia 48 h, 1 mM, 10 mM and 100 mM): significantly down regulated
Collagen-I expression (western blot) [2, 6]: significantly reduced
Collagen-IV expression (western blot) [2, 6]: significantly reduced
Fibronectin expression (western blot) [2, 6]: significantly reduced
SMAD 2/3 expression (western blot) ([2]; continuous hypoxia 48 h, 100 mM only): significantly downregulated
COL-IV expression (western blot) ([2]; episodic hypoxia, 1 mM): significant downregulation
HIF1-α signaling factors and pro-fibrosis mechanistic targets (western blot) ([2]; episodic hypoxia, across the various concentrations): not any significant downregulation
Collagen-I expression (immunofluorescence) [3, 7]: significantly reduced in a non-dose dependent manner
Collagen-IV expression (immunofluorescence) [3, 7]: dose-dependent downregulation
Fibronectin expression (immunofluorescence) [3, 7]: significantly reduced in a non-dose dependent manner
HIF1-α expression (immunofluorescence) [3, 7]: significant reduction; also recorded: dose-dependent downregulation
HSP47 expression (immunofluorescence) [3, 7]: dose-dependent downregulation
SMAD 2/3 expression (immunofluorescence) [3, 7]: significant reduction; also recorded: dose-dependent downregulation
Collagen-I expression (immunofluorescence) [3, 8]: significantly reduced at 1 mM L-alanyl-L-glutamine, but remained constant thereafter
Collagen-IV expression (immunofluorescence) [3, 8]: effectively reduces expression
Fibronectin expression (immunofluorescence) [3, 8]: effectively reduces expression
HIF1-α expression (immunofluorescence) [3, 8]: significant downregulation
HSP47 expression (immunofluorescence) [3, 8]: effectively reduces expression
SMAD 2/3 expression (immunofluorescence) [3, 8]: significant downregulation
pro-fibrotic factors Fndel, Fndc3b, Col1a1, Akt1s1 and Pxn (phosphoproteome) [4]: significantly downregulated

NC(=O)CC[C@H](N)C(=O)O [L-glutamine]
water solubility [5]: about 40 g/L
